Measurements published in patent US20010018452A1 (published 2001).

SMILES: CON=C(C(=O)OC)c1cc(C)c(C)cc1COc1ccccc1C
- melting point: 82 to 84 °C

SMILES: CNC(=O)C(=NOC)c1cc(C)c(C)cc1C(ON)=C(C)c1cccc(C(F)(F)F)c1
- melting point: 129 to 134 °C
